Experimental data reported in patent US20090253131A1, “HYBRID FUSION REPORTER AND USES THEREOF” (Promega Corporation, priority 2007, published 2009).

Columns and labels:
[1] = target: DhaA.H272F (Rhodococcus rhodochrous, UniProt P0A3G2, H272F); test: Binding of labeled chloroalkane substrates to DhaA.H272F
Description: (§1) Carboxytetramethylrhodamine-C10H21NO2—Cl, carboxyfluorescein-C10H21NO2—Cl, and 5-carboxy-X-rhodamine-C10H21NO2—Cl bound to DhaA.H272F but not to DhaA.WT. Biotin-C10H21NO2—Cl bound to DhaA.H272F but not to DhaA.WT.

[2] = target: DhaA.WT (Rhodococcus rhodochrous, UniProt P0A3G2); test: Binding of labeled chloroalkane substrates to wild type DhaA
Description: as §1

[3] = target: streptavidin (Streptomyces avidinii, UniProt P22629); details: surface plasmon resonance; cited from earlier work
[4] = target: cyclic AMP dependent protein kinase catalytic subunit (Homo sapiens, UniProt P17612); details: cited from earlier work
[5] = target: catalytic subunit of protein kinase A (Homo sapiens, UniProt P17612); details: cited from earlier work

**Q.** What does the source list for 5-carboxy-X-rhodamine-C10H21NO2—Cl?
**A.** binding to DhaA.H272F [1]: bound; binding to DhaA.WT [2]: not

**Q.** With `O=C(CCCC[C@@H]1SC[C@@H]2NC(=O)N[C@@H]21)NCCOCCOCCCCCCCl` [Biotin-C10H21NO2—Cl] as the molecule, how does the “binding to DhaA.H272F” value [1] read?
**A.** bound

**Q.** What about the “binding to DhaA.WT” value [2] of the same molecule?
**A.** not

**Q.** For `O=C(O)CCCC[C@@H]1SC[C@@H]2NC(=O)N[C@@H]21` [biotin], which “on-rate for biotin-streptavidin interaction” value [3] is on record?
**A.** 5e+06 M⁻¹ s⁻¹

**Q.** Which “binding to DhaA.H272F” value [1] does the source give for `O=C(NCCOCCOCCCCCCCl)c1ccc(-c2c3ccc(=O)cc-3oc3cc(O)ccc23)c(C(=O)O)c1` [carboxyfluorescein-C10H21NO2—Cl] here?
**A.** bound

**Q.** And the “binding to DhaA.WT” value [2]?
**A.** not

**Q.** Which results are given for “Carboxytetramethylrhodamine-C10H21NO2—Cl”?
**A.** binding to DhaA.H272F [1]: bound; binding to DhaA.WT [2]: not

**Q.** With LRRASLG as the molecule, how does the “reduction of activity on addition of kinase catalytic subunit” value [4] read?
**A.** 30%

**Q.** With “RRFS: Photinus pyralis luciferase with valine 217 mutated to arginine generating site RRFS (Sala-Newby et al.)” as the molecule, how does the “decrease of activity when phosphorylated” value [5] read?
**A.** up to 80%
